Where two headings read alike, the source gives them in different places.
Experiments:
Test in all cases: MIC of compounds alone and combined with antibacterials, broth microdilution (CLSI)
Assay type in all cases: cell-based
[1] = system: Providencia rettgeri (PRE) isolates; conditions: Providencia rettgeri
How it was run: (§1)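 Antibacterial MICs in combination were determined at every compound concentration tested, alongside compound MICs alone. Bacteria grew in cation-adjusted Mueller-Hinton broth starting from 5.10^5 CFU/mL, incubated at 35° C for 16-20 h, and endpoints were the lowest concentrations with no visible growth.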

[2] = system: Enterobacter cloacae (ECL) isolates; conditions: Enterobacter cloacae
How it was run: as §1

[3] = system: Escherichia coli (ECO) isolates; conditions: Escherichia coli
How it was run: as §1

[4] = system: Citrobacter koseri (CKR) isolates; conditions: Citrobacter koseri
How it was run: as §1

`C=CC1=C(C(=O)O)N2C(=O)[C@@H](NC(=O)/C(=N\O)c3csc(N)n3)[C@H]2SC1` [CDR, Cefdinir] was tested, and the MIC ([1]; strain PRE UFR99, genotype OXA-1, OXA-181) was over 256 µg/mL, the MIC ([1]; strain PRE UFR236, genotype TEM-1, OXA-48) was over 256 µg/mL and the MIC ([2]; strain ECL 2185D, genotype OXA-163) was over 256 µg/mL. It also gave an MIC ([2]; strain ECL 190310, genotype AmpC) of over 256 µg/mL, an MIC ([2]; strain ECL 190408, genotype TEM-1, CTX-M-15, OXA-1) of over 256 µg/mL and an MIC ([2]; strain ECL 200138, genotype AmpC) of over 256 µg/mL. For the same compound, the MIC ([2]; strain ECL 200322, genotype TEM-1, CTX-M-15, OXA-1) was over 256 µg/mL, the MIC ([2]; strain ECL 260033, genotype AmpC) was over 256 µg/mL and the MIC ([2]; strain ECL 260253, genotype TEM-1, KPC-3) was over 256 µg/mL. The MIC ([2]; strain ECL 260323, genotype AmpC, read-out: MIC) was 256 µg/mL, the MIC ([2]; strain ECL 260508, genotype TEM-1, CTX-M-15) was over 256 µg/mL and the MIC ([2]; strain ECL NEM146383, genotype AmpC) was over 256 µg/mL. The MIC ([2]; strain ECL P99, genotype AmpC) was over 256 µg/mL, the MIC ([2]; strain ECL UFR12, genotype CTX-M-9, OXA-48) was over 256 µg/mL and the MIC ([2]; strain ECL UFR13, genotype TEM-1, SHV-12, CTX-M-9, OXA-48) was over 256 µg/mL. It also gave an MIC ([2]; strain ECL UFR14, genotype TEM-1, SHV-12, CTX-M-15, DHA-1, OXA-1, OXA-48) of over 256 µg/mL, an MIC ([2]; strain ECL UFR60, genotype TEM-1, CTX-M-15, KPC-2) of over 256 µg/mL and an MIC ([2]; strain ECL UFR70, genotype TEM-1, CTX-M-15, CMY-2, OXA-1, Porin loss) of over 256 µg/mL. For the same compound, the MIC ([2]; strain ECL UFR84, genotype TEM-1, AmpC, OXA-1) was over 256 µg/mL, the MIC ([2]; strain ECL UFR85, genotype TEM-1, CTX-M-15, AmpC) was over 256 µg/mL and the MIC ([2]; strain ECL UFR194, genotype OXA-48) was over 256 µg/mL. For the same compound, the MIC ([2]; strain ECL UFR195, genotype TEM-1, CTX-M-15, OXA-1, OXA-48) was over 256 µg/mL, the MIC ([2]; strain ECL UFR196, genotype TEM-1, CTX-M-15, OXA-1, OXA-48) was over 256 µg/mL and the MIC ([2]; strain ECL UFR197, genotype TEM-1, CTX-M-15, OXA-1, OXA-48) was over 256 µg/mL. The MIC ([2]; strain ECL UFR198, genotype TEM-1, SHV-12, CTX-M-15, DHA-1, OXA-1, OXA-48) was over 256 µg/mL, the MIC ([2]; strain ECL UFR200, genotype TEM-1, SHV-12, KPC-2) was over 256 µg/mL and the MIC ([3]; strain ECO 4133, genotype TEM-30, OXA-1, read-out: MIC) was 0.5 µg/mL. It also gave an MIC ([3]; strain ECO 5302, genotype TEM-1, OXA-1, read-out: MIC) of 1 µg/mL, an MIC ([3]; strain ECO 131119, genotype TEM-1, OXA-48, read-out: MIC) of 256 µg/mL and an MIC ([3]; strain ECO 180070, genotype TEM-1, CTX-M-15) of over 256 µg/mL. For the same compound, the MIC ([3]; strain ECO 190314, genotype CTX-M-1) was over 256 µg/mL, the MIC ([3]; strain ECO 190317, genotype TEM-1, SHV-12, CTX-M-15, OXA-1) was over 256 µg/mL and the MIC ([3]; strain ECO 190457, genotype CTX-M-15, OXA-1) was over 256 µg/mL. The MIC ([3]; strain ECO 190549, genotype CTX-M-1, read-out: MIC) was 256 µg/mL, the MIC ([3]; strain ECO 200159, genotype TEM-1, CTX-M-14, read-out: MIC) was 256 µg/mL and the MIC ([3]; strain ECO 200259, genotype CTX-M-14, read-out: MIC) was 256 µg/mL. For the same compound, the MIC ([3]; strain ECO 200344, genotype CTX-M-1) was over 256 µg/mL, the MIC ([3]; strain ECO 260096, genotype CTX-M-132) was over 256 µg/mL and the MIC ([3]; strain ECO 260304, genotype CTX-M-15, read-out: MIC) was 256 µg/mL. For the same compound, the MIC ([3]; strain ECO 260508, genotype TEM-1, CTX-M-15, OXA-1) was over 256 µg/mL, the MIC ([3]; strain ECO RGN238, genotype OXA-1, read-out: MIC) was 0.5 µg/mL and the MIC ([3]; strain ECO UFR15, genotype TEM-1, OXA-48) was over 256 µg/mL. The MIC ([3]; strain ECO UFR16, genotype TEM-1, CTX-M-15, OXA-1, OXA-48) was over 256 µg/mL, the MIC ([3]; strain ECO UFR17, genotype TEM-1, CTX-M-15, CMY-2, OXA-1, OXA-181) was over 256 µg/mL and the MIC ([3]; strain ECO UFR18, genotype CTX-M-15, OXA-204) was over 256 µg/mL. The MIC ([3]; strain ECO UFR19, genotype CTX-M-15, CMY-2, OXA-1, OXA-204) was over 256 µg/mL, the MIC ([3]; strain ECO UFR20, genotype SHV-1, CTX-M-15, OXA-1, OXA-232) was over 256 µg/mL and the MIC ([3]; strain ECO UFR61O, genotype TEM-1, KPC-2) was over 256 µg/mL. It also gave an MIC ([3]; strain ECO UFR62, genotype TEM-1, CTX-M-9, KPC-2) of over 256 µg/mL, an MIC ([3]; strain ECO UFR74, genotype SHV-1, DHA-1) of over 256 µg/mL and an MIC ([3]; strain ECO UFR86, genotype ompC-, ompF-, read-out: MIC) of 2 µg/mL. The MIC ([3]; strain ECO UFR174, genotype TEM-1, KPC-2, OXA-1) was over 256 µg/mL, the MIC ([3]; strain ECO UFR175, genotype TEM-1, KPC-2, OXA-9) was over 256 µg/mL and the MIC ([3]; strain ECO UFR176, genotype KPC-3, OXA-9*) was over 256 µg/mL. It also gave an MIC ([3]; strain ECO UFR184, genotype CTX-M-15, CMY-4, OXA-1, OXA-204) of over 256 µg/mL, an MIC ([3]; strain ECO UFR185, genotype OXA-48) of over 256 µg/mL and an MIC ([3]; strain ECO UFR186, genotype TEM-1, CTX-M-14, OXA-48) of over 256 µg/mL. It also gave an MIC ([3]; strain ECO UFR187, genotype CTX-M-15, OXA-48) of over 256 µg/mL, an MIC ([3]; strain ECO UFR189, genotype TEM-1, CTX-M-15, OXA-48) of over 256 µg/mL and an MIC ([3]; strain ECO UFR190, genotype CTX-M-24, OXA-48) of over 256 µg/mL. For the same compound, the MIC ([3]; strain ECO UFR191, genotype TEM-1, CTX-M-24, OXA-48) was over 256 µg/mL, the MIC ([3]; strain ECO UFR207, genotype CTX-M-15) was over 256 µg/mL and the MIC ([3]; strain ECO UFR208, genotype SHV-12) was over 256 µg/mL. For the same compound, the MIC ([3]; strain ECO UFR209, genotype TEM-1, CTX-M-15) was over 256 µg/mL, the MIC ([3]; strain ECO UFR210, genotype SHV-12) was over 256 µg/mL and the MIC ([3]; strain ECO UFR211, genotype TEM-24, read-out: MIC) was 32 µg/mL. The MIC ([3]; strain ECO UFR212, genotype CMY-2) was over 256 µg/mL, the MIC ([3]; strain ECO UFR218, genotype TEM-1, SHV-1, CTX-M-15) was over 256 µg/mL and the MIC [4] was over 256 µg/mL.

Source: patent publication US20200017495A1, “NOVEL HETEROCYCLIC COMPOUNDS AND THEIR USE IN PREVENTING OR TREATING BACTERIAL INFECTIONS” (priority 2017, published 2020)
